# According to US20030211078A1, “Pseudo-antibody constructs” (priority 2001, published 2003):
# T1: MMP 2 (Homo sapiens, UniProt P08253)
# T1 sequence (P08253 110-660): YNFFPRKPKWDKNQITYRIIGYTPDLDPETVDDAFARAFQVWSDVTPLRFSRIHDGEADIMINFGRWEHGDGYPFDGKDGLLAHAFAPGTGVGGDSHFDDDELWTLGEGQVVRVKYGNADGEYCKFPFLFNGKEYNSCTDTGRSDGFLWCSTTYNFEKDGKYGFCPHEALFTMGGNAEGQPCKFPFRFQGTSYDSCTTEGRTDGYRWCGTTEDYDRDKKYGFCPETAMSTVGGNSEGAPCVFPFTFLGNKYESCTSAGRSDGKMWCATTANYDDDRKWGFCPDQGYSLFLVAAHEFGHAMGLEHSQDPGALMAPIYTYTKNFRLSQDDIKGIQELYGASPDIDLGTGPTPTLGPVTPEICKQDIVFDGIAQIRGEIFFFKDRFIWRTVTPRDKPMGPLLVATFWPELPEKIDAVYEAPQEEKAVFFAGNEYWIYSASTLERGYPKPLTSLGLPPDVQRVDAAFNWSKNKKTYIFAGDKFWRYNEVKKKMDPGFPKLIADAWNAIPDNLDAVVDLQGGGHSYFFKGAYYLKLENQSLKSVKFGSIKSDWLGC
# B1: 7E3 Fab′ (PEG3.4.k-PAL)2: pseudo-antibody: 7E3 Fab′ fragment with two PEG3.4k chains each ending in palmatoyl (PAL) (conjugate, chains of the INN, looked up)
# VH: EVQLQQSGTVLARPGASVKMSCEASGYTFTNYWMHWVKQRPGQGLEWIGAIYPGNSDTSYIQKFKGKAKLTAVTSTTSVYMELSSLTNEDSAVYYCTLYDGYYVFAYWGQGTLVTVSA
# VL: EIVLTQSPVTLSVTPGDSVSLSCRASRDISNNLHWFQQTSHESPRLLIKYASQSMSGIPSRFSGSGSGTDFTLSINSVETEDFGMYFCQQTNSWPYTFGGGTKLEIK
# modifications: Fab' two PEG3.4k-palmitoyl chains
# How the values were obtained:
# [1] = test system: platelet aggregation (GPIIb/IIIa receptors on platelets); test: inhibition of platelet aggregation, in vitro activity (FIG. 1, FIG. 2); type: cell-based; conditions: for in vitro activity (inhibition of platelet aggregation) compared with unmodified 7E3 Fab′: FIG. 1, versus unmodified Fab; for binding activity / in vitro activity (inhibition of platelet aggregation) compared with unmodified antibody fragment ReoPro: FIG. 2; for in vitro activity (inhibition of platelet aggregation) compared with unmodified antibody fragment ReoPro: versus ReoPro
# From the text: FIG. 1 depicts a comparison of the inhibition of platelet aggregation by two pseudo-antibodies (7E3 Fab′ (PEG3.4K-DSPE)2 and 7E3 Fab′ (PEG3.4K-PAL)2) and one unmodified antibody fragment (7E3 Fab).
# FIG. 2 depicts a comparison of the inhibition of platelet aggregation by two pseudo-antibodies (7E3 Fab′ (PEG5K)2 and 7E3 Fab′ (PEG10K)2) and one unmodified antibody fragment (ReoPro®).
# The organic moieties portions of these constructs may also be dimerized, such that n=2. For example, the antibody fragment 7E3 Fab′ was used to construct the pseudo-antibody 7E3 Fab′ (PEG3.4k-DSPE)2 and the pseudo-antibody 7E3 Fab′ (PEG3.4.k-PAL)2 and the in vitro activities were compared with unmodified 7E3 Fab′.
# Additionally, 7E3 Fab′ was used to construct the pseudo-antibodies 7E3 Fab′ (PEG5k)2 and 7E3 Fab′ (PEG10k)2 and the in vitro activites were compared with the unmodified antibody fragment ReoPro®.
# [2] = in vivo pharmacokinetic analysis, circulating half-life / clearance in mice (FIG. 3); conditions: equimolar doses
# Protocol: FIG. 3 depicts a comparison of in vivo circulating half-life, in mice, of two pseudo-antibodies, 7E3 Fab′ (PEG3.4K-DSPE)2 and 7E3 Fab′ (PEG5K)2.
# For in vivo pharmacokinetic analysis, c7E3 Fab′ (PEG3.4k-DSPE)2 and c7E3 Fab′ (PEG5k) were prepared, and given to mice in equimolar doses. The results are depicted in FIG. 3.
# [3] = target: T1, MMP 2; conditions: cited from earlier work
# [4] = target: MMP 3 (Homo sapiens, UniProt P08254); conditions: cited from earlier work
# Chain of MMP 3 (P08254 100-477): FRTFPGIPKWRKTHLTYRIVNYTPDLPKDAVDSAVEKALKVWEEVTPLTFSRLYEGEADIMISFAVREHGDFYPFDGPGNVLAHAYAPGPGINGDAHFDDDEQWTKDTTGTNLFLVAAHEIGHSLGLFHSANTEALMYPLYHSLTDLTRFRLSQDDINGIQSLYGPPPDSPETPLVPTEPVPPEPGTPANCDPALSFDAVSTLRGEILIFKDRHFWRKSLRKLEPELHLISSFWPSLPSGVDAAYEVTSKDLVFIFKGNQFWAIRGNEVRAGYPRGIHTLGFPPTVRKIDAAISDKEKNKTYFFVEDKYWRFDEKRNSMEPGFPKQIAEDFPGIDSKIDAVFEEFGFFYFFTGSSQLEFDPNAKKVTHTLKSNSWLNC
# [5] = target: MMP 9 (Homo sapiens, UniProt P14780); conditions: cited from earlier work
# Chain of MMP 9 (P14780 94-707): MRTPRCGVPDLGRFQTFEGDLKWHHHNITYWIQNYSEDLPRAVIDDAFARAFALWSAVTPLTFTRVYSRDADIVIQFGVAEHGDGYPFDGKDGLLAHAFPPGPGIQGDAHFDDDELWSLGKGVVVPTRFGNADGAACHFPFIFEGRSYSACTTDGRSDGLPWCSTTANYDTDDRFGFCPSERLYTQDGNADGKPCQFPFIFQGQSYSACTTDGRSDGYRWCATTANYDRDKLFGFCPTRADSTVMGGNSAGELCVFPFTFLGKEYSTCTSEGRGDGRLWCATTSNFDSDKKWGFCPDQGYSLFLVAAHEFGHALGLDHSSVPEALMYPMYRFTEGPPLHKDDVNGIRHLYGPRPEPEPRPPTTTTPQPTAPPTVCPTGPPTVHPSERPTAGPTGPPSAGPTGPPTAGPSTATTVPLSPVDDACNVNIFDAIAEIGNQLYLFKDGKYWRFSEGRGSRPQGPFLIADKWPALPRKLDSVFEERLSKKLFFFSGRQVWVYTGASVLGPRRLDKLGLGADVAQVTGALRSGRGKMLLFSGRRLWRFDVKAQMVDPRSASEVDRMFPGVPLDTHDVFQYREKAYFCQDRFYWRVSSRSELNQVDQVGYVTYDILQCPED
# [6] = test system: adjuvant arthritic rat; conditions: bone mineral density, MRI, micro-CT, histology; cited from earlier work
# [7] = cited from earlier work
molecule,measurement,setting,value
7E3 Fab′ (PEG3.4k-DSPE)2: pseudo-antibody: 7E3 Fab′ fragment with two PEG3.4k chains each ending in diesteroylphosphatidyl-ethanolamine (DSPE),in vitro activity (inhibition of platelet aggregation) compared with unmodified 7E3 Fab′,[1],similar
same,rate of clearance,[2],slower rate of clearance
7E3 Fab′ (PEG5k)2: pseudo-antibody: 7E3 Fab′ fragment with two PEG5k chains,binding activity,[1],binding activity was clearly retained
same,in vitro activity (inhibition of platelet aggregation) compared with unmodified antibody fragment ReoPro,[1],somewhat lower in vitro activity than the unmodified antibody fragment
7E3 Fab′ (PEG10k)2: pseudo-antibody: 7E3 Fab′ fragment with two PEG10k chains,binding activity,[1],binding activity was clearly retained
same,in vitro activity (inhibition of platelet aggregation) compared with unmodified antibody fragment ReoPro,[1],somewhat lower in vitro activity than the unmodified antibody fragment
O=C(C[C@H](CSc1ccccc1)C(=O)O)c1ccc(-c2ccc(Cl)cc2)cc1 [BAY12-9566],inhibitory activity against MMP 2,[3],nM inhibitory activity
same,inhibitory activity against MMP 3,[4],nM inhibitory activity
same,inhibitory activity against MMP 9,[5],nM inhibitory activity
COc1nccc(-c2c(-c3ccc(F)cc3)ncn2C2CCNCC2)n1 [SB 242235],activity in the adjuvant arthritic rat,[6],inhibits inflammation and has significant joint-protective effects
CCCCS(=O)(=O)N[C@@H](Cc1ccc(OCCCCC2CCNCC2)cc1)C(=O)O [Tirofiban],in vivo circulatory half-life,[7],approximately two
"c7E3 Fab′ (PEG5k): pseudo-antibody of c7E3 Fab′ with PEG5k, given to mice; probably the same as 7E3 Fab′ (PEG5K)2 of FIG. 3",rate of clearance,[2],cleared faster
B1,in vitro activity (inhibition of platelet aggregation) compared with unmodified 7E3 Fab′,[1],similar
